Assay results taken from BindingDB's records for doi:10.1021/jm020994z (Universit&#224, 2003).

Experiments:
[1] = Binding affinity of compound was tested for Sigma receptor type 1
[2] = biological target: Sigma intracellular receptor 2 (Rattus norvegicus); assay: Binding affinity of compound was tested for Sigma receptor type 2

SMILES | Ki [1] [µM] | Ki [2] [µM]
O=C(CCCCCN1CCN(c2noc3ccccc23)CC1)c1ccccc1O [6-(4-Benzo[d]isoxazol-3-yl-piperazin-1-yl)-1-(2-hydroxy-phenyl)-hexan-1-one] | 0.061 | –
COc1ccccc1C(=O)CCCCCN1CCN(c2noc3ccccc23)CC1 [6-(4-Benzo[d]isoxazol-3-yl-piperazin-1-yl)-1-(2-methoxy-phenyl)-hexan-1-one] | 4.29 | 0.147
